For 7 molecules, EC50 results are on record in patent publication US20210221866A1, “PROTEASE-RESISTANT LIPIDATED GLP-1 ANALOGS” (MEDIMMUNE LIMITED, priority 2015, published 2021).

The target in this assay is T1, human GLP-1 receptor (GLP-1R) (Homo sapiens, UniProt P43220).
T1 construct: expressed in transfected cells; host or cells: HEK293 cells or CHO cells
The assay can be described thus: cAMP assay, human GLP-1R cells. It counts as cell-based. As to the method:
Sample dilutions are made in duplicate.
A frozen cryo-vial of cells expressing the receptor of interest is thawed rapidly in a water-bath, transferred to pre-warmed assay buffer and spun at 240×g for 5 minutes. Cells are re-suspended in assay buffer at a batch-dependent optimized concentration (e.g. hGCGR cells at 2×10^5 cells/ml, hGLP-1R and hGIPR cells at 1×10^5 cells/ml).
To this, 5 μL cell suspension is added and the plates incubated at room temperature for 30 minutes.
cAMP levels are measured using a commercially available cAMP dynamic 2 HTRF kit (Cisbio, Cat #62AM4PEJ), following the two step protocol as per manufacturer's recommendations. In brief; anti-cAMP cryptate (donor fluorophore) and cAMP-d2 (acceptor fluorophore) are made up separately by diluting each 1/20 in conjugate & lysis buffer provided in the kit. 5 μL anti-cAMP cryptate is added to wells of the assay plate, and 5 μL cAMP-d2 is added to wells except non-specific binding (NSB) wells, to which conjugate and lysis buffer are added. […] EC50 values of the synthetic peptides determined in cAMP assays are then determined.
Data is transformed to % Delta F as described in the manufacturer's guidelines and analyzed by 4-parameter logistic fit to determine EC50 values. […] To compare the balance of activities at the GLP-1R and GCGR between different peptides and across different conditions, these can be correlated, where the EC50's are related to those of comparator peptides.
For orientation: Cyclic AMP is a second messenger, typically raised through Gs and lowered through Gi signalling.

The mark [1] stands for this setting: cAMP activity, mean of n1 and n2, read-out: Mean pM GLP-1R.
[2] abbreviates: Table 11, tris-lipidated peptides, mean of n1 and n2, read-out: Primary assay EC50 Mean pM GLP-1R.
Where [3] appears, read: Table 11, tris-lipidated peptides, replicate n1, read-out: Primary assay EC50 GLP-1R n1.
Where [4] appears, read: Table 11, tris-lipidated peptides, replicate n2, read-out: Primary assay EC50 GLP-1R n2.

Read-outs that look alike come from different tables or passages of the source. Numbered stars: 1 amine (or outer) side, 2 acyl side, 3 side chain; on linkers, the order of the positions; unused ones are H or OH. Square brackets hold non-standard residues; d marks the D form. Side chains are listed from the residue outwards. Peptide text beside a SMILES is read from it. * marks the point of attachment. C18 diacid = O=C(O)CCCCCCCCCCCCCCCCC(=O)*; γGlu = O=C(O)[C@H](CCC(=O)[*:2])N[*:1]; αMeF = C[C@](N)(Cc1ccccc1)C(=O)O; αMeK = C[C@](N)(CCCCN)C(=O)O; Lauroyl = CCCCCCCCCCCC(=O)*; αMeS = C[C@](N)(CO)C(=O)O; AEEA = NCCOCCOCC(=O)O; Aib = CC(C)(N)C(=O)O

T1 sequence (P43220 24-463): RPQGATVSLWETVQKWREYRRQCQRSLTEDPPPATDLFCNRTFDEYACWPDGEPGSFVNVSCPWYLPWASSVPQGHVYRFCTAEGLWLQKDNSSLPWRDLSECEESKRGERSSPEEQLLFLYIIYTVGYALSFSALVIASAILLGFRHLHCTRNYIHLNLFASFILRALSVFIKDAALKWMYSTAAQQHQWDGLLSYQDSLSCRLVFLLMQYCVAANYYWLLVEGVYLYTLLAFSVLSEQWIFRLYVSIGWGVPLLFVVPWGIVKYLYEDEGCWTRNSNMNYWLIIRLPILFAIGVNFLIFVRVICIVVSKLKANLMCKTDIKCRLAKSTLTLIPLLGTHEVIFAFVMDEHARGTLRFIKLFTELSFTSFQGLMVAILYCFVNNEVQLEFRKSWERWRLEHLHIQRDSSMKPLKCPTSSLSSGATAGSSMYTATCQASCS

On to `CC[C@H](C)[C@H](NC(=O)[C@](C)(Cc1ccccc1)NC(=O)[C@H](CCC(=O)O)NC(=O)[C@](C)(CCCCN)NC(=O)[C@H](C)NC(=O)[C@H](CCCCNC(=O)COCCOCCNC(=O)COCCOCCNC(=O)CC[C@H](NC(=O)CCCCCCCCCCCCCCCCC(=O)O)C(=O)O)NC(=O)[C@H](CCC(=O)O)NC(=O)CNC(=O)[C@H](CCC(=O)O)NC(=O)[C@H](CC(C)C)NC(=O)[C@](C)(Cc1ccccc1)NC(=O)[C@H](CO)NC(=O)[C@](C)(CO)NC(=O)[C@@H](NC(=O)[C@H](CC(=O)O)NC(=O)[C@H](CO)NC(=O)[C@@H](NC(=O)[C@](C)(Cc1ccccc1)NC(=O)[C@H](CO)NC(=O)CNC(=O)[C@H](CCC(=O)O)NC(=O)C(C)(C)NC(=O)[C@@H](N)Cc1c[nH]cn1)[C@@H](C)O)C(C)C)C(=O)N[C@@H](C)C(=O)N[C@@](C)(Cc1ccccc1)C(=O)N[C@H](C(=O)N[C@H](C(=O)N[C@@](C)(CCCCN)C(=O)NCC(=O)NCC(N)=O)C(C)C)C(C)C` [compound 111] (H-H[Aib]EGS[αMeF]TSDV[αMeS]S[αMeF]LEGEK([AEEA-AEEA-γGlu-C18 diacid])A[αMeK]E[αMeF]IA[αMeF]VV[αMeK]GG-NH2; N-terminus assumed), for which, under setting [1], the EC50 worked out at 17 pM.
Turning to `CCCCCCCCCCCC(=O)N[C@@H](CCC(=O)NCCOCCOCC(=O)NCCOCCOCC(=O)NCCCC[C@H](NC(=O)[C@H](C)NC(=O)[C@@H](NC(=O)[C@H](Cc1ccccc1)NC(=O)[C@H](CCC(=O)O)NC(=O)[C@](C)(CCCCN)NC(=O)[C@H](C)NC(=O)[C@H](C)NC(=O)[C@H](CCC(=O)O)NC(=O)[C@H](CCCCNC(=O)COCCOCCNC(=O)COCCOCCNC(=O)CC[C@H](NC(=O)CCCCCCCCCCC)C(=O)O)NC(=O)[C@H](CCC(=O)O)NC(=O)[C@H](CC(C)C)NC(=O)[C@H](CCCCNC(=O)COCCOCCNC(=O)COCCOCCNC(=O)CC[C@H](NC(=O)CCCCCCCCCCC)C(=O)O)NC(=O)[C@H](CO)NC(=O)[C@](C)(CO)NC(=O)[C@@H](NC(=O)[C@H](CC(=O)O)NC(=O)[C@H](CO)NC(=O)[C@@H](NC(=O)[C@](C)(Cc1ccccc1)NC(=O)[C@H](CO)NC(=O)CNC(=O)[C@H](CCC(=O)O)NC(=O)C(C)(C)NC(=O)[C@@H](N)Cc1c[nH]cn1)[C@@H](C)O)C(C)C)[C@@H](C)CC)C(=O)N[C@H](C(=O)N[C@H](C(=O)N[C@@H](CCC(=O)O)C(=O)NCC(=O)NCC(N)=O)C(C)C)C(C)C)C(=O)O` [compound 463] (H-H[Aib]EGS[αMeF]TSDV[αMeS]SK([AEEA-AEEA-γGlu-Lauroyl])LEK([AEEA-AEEA-γGlu-Lauroyl])EAA[αMeK]EFIAK([AEEA-AEEA-γGlu-Lauroyl])VVEGG-NH2; N-terminus assumed), the EC50 under setting [2] was 82 pM, the EC50 under setting [3] is 69.5 pM and the EC50 under setting [4] turned out to be 94.4 pM.
In the case of `CC[C@H](C)[C@H](NC(=O)[C@](C)(Cc1ccccc1)NC(=O)[C@H](CCC(=O)O)NC(=O)[C@](C)(CCCCN)NC(=O)[C@H](C)NC(=O)[C@H](C)NC(=O)[C@H](CCC(=O)O)NC(=O)CNC(=O)[C@H](CCC(=O)O)NC(=O)[C@H](CC(C)C)NC(=O)[C@](C)(Cc1ccccc1)NC(=O)[C@H](CO)NC(=O)[C@](C)(CO)NC(=O)[C@@H](NC(=O)[C@H](CC(=O)O)NC(=O)[C@H](CO)NC(=O)[C@@H](NC(=O)[C@](C)(Cc1ccccc1)NC(=O)[C@H](CO)NC(=O)CNC(=O)[C@H](CCC(=O)O)NC(=O)C(C)(C)NC(=O)[C@@H](N)Cc1c[nH]cn1)[C@@H](C)O)C(C)C)C(=O)N[C@@H](C)C(=O)N[C@@H](CCCCNC(=O)COCCOCCNC(=O)COCCOCCNC(=O)CC[C@H](NC(=O)CCCCCCCCCCCCCCCCC(=O)O)C(=O)O)C(=O)N[C@H](C(=O)N[C@H](C(=O)N[C@@](C)(CCCCN)C(=O)NCC(=O)NCC(N)=O)C(C)C)C(C)C` [compound 104], the EC50 under setting [1] turned out to be 5 pM.
The same measure, in the same setting: with `CCCCCCCCCCCC(=O)N[C@@H](CCC(=O)N[C@@H](CCC(=O)NCCCC[C@H](NC(=O)[C@H](C)NC(=O)[C@H](C)NC(=O)[C@H](CCC(=O)O)NC(=O)CNC(=O)[C@H](CCC(=O)O)NC(=O)[C@H](CC(C)C)NC(=O)[C@](C)(Cc1ccccc1)NC(=O)[C@H](CO)NC(=O)[C@](C)(CO)NC(=O)[C@@H](NC(=O)[C@H](CC(=O)O)NC(=O)[C@H](CO)NC(=O)[C@@H](NC(=O)[C@](C)(Cc1ccccc1)NC(=O)[C@H](CO)NC(=O)CNC(=O)[C@H](CCC(=O)O)NC(=O)C(C)(C)NC(=O)[C@@H](N)Cc1c[nH]cn1)[C@@H](C)O)C(C)C)C(=O)N[C@@H](CCC(=O)O)C(=O)N[C@@](C)(Cc1ccccc1)C(=O)N[C@H](C(=O)N[C@@H](C)C(=O)N[C@@](C)(Cc1ccccc1)C(=O)N[C@H](C(=O)N[C@H](C(=O)N[C@@](C)(CCCCN)C(=O)NCC(=O)NCC(N)=O)C(C)C)C(C)C)[C@@H](C)CC)C(=O)O)C(=O)O` [compound 129] the figure was 11.5 pM.
In the case of `CCCCCCCCCCCC(=O)N[C@@H](CCC(=O)NCCOCCOCC(=O)NCCOCCOCC(=O)NCCCC[C@H](NC(=O)[C@H](C)NC(=O)[C@@H](NC(=O)[C@H](Cc1ccccc1)NC(=O)[C@H](CCC(=O)O)NC(=O)[C@](C)(CCCCN)NC(=O)[C@H](C)NC(=O)[C@H](CCCCNC(=O)COCCOCCNC(=O)COCCOCCNC(=O)CC[C@H](NC(=O)CCCCCCCCCCC)C(=O)O)NC(=O)[C@H](CCC(=O)O)NC(=O)CNC(=O)[C@H](CCC(=O)O)NC(=O)[C@H](CC(C)C)NC(=O)[C@H](Cc1ccc(O)cc1)NC(=O)[C@H](CO)NC(=O)[C@H](CO)NC(=O)[C@H](CCCCNC(=O)COCCOCCNC(=O)COCCOCCNC(=O)CC[C@H](NC(=O)CCCCCCCCCCC)C(=O)O)NC(=O)[C@H](CC(=O)O)NC(=O)[C@H](CO)NC(=O)[C@@H](NC(=O)[C@](C)(Cc1ccccc1)NC(=O)[C@H](CO)NC(=O)CNC(=O)[C@H](CCC(=O)O)NC(=O)C(C)(C)NC(=O)[C@@H](N)Cc1c[nH]cn1)[C@@H](C)O)[C@@H](C)CC)C(=O)N[C@H](C(=O)N[C@H](C(=O)N[C@@H](CCC(=O)O)C(=O)NCC(=O)NCC(N)=O)C(C)C)C(C)C)C(=O)O` [compound 457] (H-H[Aib]EGS[αMeF]TSDK([AEEA-AEEA-γGlu-Lauroyl])SSYLEGEK([AEEA-AEEA-γGlu-Lauroyl])A[αMeK]EFIAK([AEEA-AEEA-γGlu-Lauroyl])VVEGG-NH2; N-terminus assumed), the EC50 runs as follows: under setting [2], 142 pM; under setting [3], 127 pM; under setting [4], 156 pM.
Turning to `CC[C@H](C)[C@H](NC(=O)[C@](C)(Cc1ccccc1)NC(=O)[C@H](CCC(=O)O)NC(=O)[C@](C)(CCCCN)NC(=O)[C@H](CCCCNC(=O)COCCOCCNC(=O)COCCOCCNC(=O)CC[C@H](NC(=O)CCCCCCCCCCCCCCCCC(=O)O)C(=O)O)NC(=O)[C@H](C)NC(=O)[C@H](CCC(=O)O)NC(=O)CNC(=O)[C@H](CCC(=O)O)NC(=O)[C@H](CC(C)C)NC(=O)[C@](C)(Cc1ccccc1)NC(=O)[C@H](CO)NC(=O)[C@](C)(CO)NC(=O)[C@@H](NC(=O)[C@H](CC(=O)O)NC(=O)[C@H](CO)NC(=O)[C@@H](NC(=O)[C@](C)(Cc1ccccc1)NC(=O)[C@H](CO)NC(=O)CNC(=O)[C@H](CCC(=O)O)NC(=O)C(C)(C)NC(=O)[C@@H](N)Cc1c[nH]cn1)[C@@H](C)O)C(C)C)C(=O)N[C@@H](C)C(=O)N[C@@](C)(Cc1ccccc1)C(=O)N[C@H](C(=O)N[C@H](C(=O)N[C@@](C)(CCCCN)C(=O)NCC(=O)NCC(N)=O)C(C)C)C(C)C` [compound 110] (H-H[Aib]EGS[αMeF]TSDV[αMeS]S[αMeF]LEGEAK([AEEA-AEEA-γGlu-C18 diacid])[αMeK]E[αMeF]IA[αMeF]VV[αMeK]GG-NH2; N-terminus assumed), the EC50 under setting [1] was 62 pM.
Still for that read-out and setting: with `CC(C)[C@H](NC(=O)[C@H](CCC(=O)O)NC(=O)[C@H](CO)NC(=O)[C@H](CO)NC(=O)[C@](C)(Cc1ccccc1)NC(=O)[C@H](CO)NC(=O)CNC(=O)[C@H](CCC(=O)O)NC(=O)C(C)(C)NC(=O)[C@@H](N)Cc1c[nH]cn1)C(=O)N[C@@H](CO)C(=O)N[C@@H](CO)C(=O)N[C@@](C)(Cc1ccccc1)C(=O)N[C@H](C(=O)N[C@@H](CCC(=O)O)C(=O)NCC(=O)N[C@@H](CCC(=O)O)C(=O)N[C@@H](C)C(=O)N[C@@H](C)C(=O)N[C@@](C)(CCCCN)C(=O)N[C@@H](CCC(=O)O)C(=O)N[C@@](C)(Cc1ccccc1)C(=O)N[C@H](C(=O)N[C@@H](C)C(=O)N[C@@](C)(Cc1ccccc1)C(=O)N[C@H](C(=O)N[C@H](C(=O)N[C@@](C)(CCCCN)C(=O)NCC(=O)NCC(N)=O)C(C)C)C(C)C)C(C)C)C(C)C` [compound 12] (H-H[Aib]EGS[αMeF]SSEVSS[αMeF]VEGEAA[αMeK]E[αMeF]VA[αMeF]VV[αMeK]GG-NH2; N-terminus assumed) the figure was 2100 pM.
